Source: the supplement of paper PMC8671470

How the values were obtained:
Settings in all cases: 72 h
[1] = tested on: BV-173
Method in brief: (§1)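 Fifteen myeloid leukaemia lines in RPMI 1640 were treated for 72 h at 37 °C and 5% CO2 with five tenfold doses from 1 to 10,000 nM, in duplicate. ATP luminescence was normalised to vehicle and to a positive control at 10 µM, then fitted with a four-parameter log-logistic model. The IC50 came from these fits.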

[2] = tested on: HEL
Method in brief: as §1

[3] = tested on: HL-60
Method in brief: as §1

[4] = tested on: K-562
Method in brief: as §1

[5] = tested on: KCL-22
Method in brief: as §1

[6] = tested on: KG-1
Method in brief: as §1

[7] = tested on: KU-812
Method in brief: as §1

[8] = tested on: LAMA-84
Method in brief: as §1

[9] = tested on: ML-2
Method in brief: as §1

[10] = tested on: MOLM-13
Method in brief: as §1

[11] = tested on: MV4-11
Method in brief: as §1

[12] = tested on: Mono-Mac-6
Method in brief: as §1

[13] = tested on: NOMO-1
Method in brief: as §1

[14] = tested on: SHI-1
Method in brief: as §1

[15] = tested on: THP-1
Method in brief: as §1

[16] = tested on: HL-60; assay: cell viability (% survival relative to DMSO control); higher = less cytotoxic
Method in brief: (§2)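 For each screen, HL-60 cells in RPMI 1640 with 10% FBS carried either DMSO or 100 nM of one of three metabolic inhibitors while the full library was applied at five tenfold concentrations, 1–10,000 nM, in duplicate. Plates were 384-well and were kept 72 h at 37 °C, 5% CO2. Viability, measured by CellTiter-Glo, was normalised to wells with DMSO and with 10 μM proteasome inhibitor. Where area under the curve appears, it was fitted by four-parameter log-logistic models in drc and PharmacoGx.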

[17] = tested on: BV-173; assay: cell viability (% survival relative to DMSO control, bortezomib = 0%); higher = less cytotoxic
Method in brief: (§3)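 Fifteen myeloid leukaemia cell lines were exposed to compounds at 1, 10, 100, 1000 or 10000 nM in 384-well plates for 72 h at 37 °C and 5% CO2. Viability was read by CellTiter-Glo luminescence and normalised, with vehicle as 100% and a 10 µM positive control as 0%. Values are percent survival averaged over duplicates.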

[18] = tested on: HEL; assay: as above
Method in brief: as §3

[19] = tested on: HL-60; assay: as above
Method in brief: as §3

[20] = tested on: K-562; assay: as above
Method in brief: as §3

[21] = tested on: KCL-22; assay: as above
Method in brief: as §3

[22] = tested on: KG-1; assay: as above
Method in brief: as §3

[23] = tested on: LAMA-84; assay: as above
Method in brief: as §3

[24] = tested on: ML-2; assay: as above
Method in brief: as §3

[25] = tested on: MV4-11; assay: as above
Method in brief: as §3

[26] = tested on: Mono-Mac-6; assay: as above
Method in brief: as §3

[27] = tested on: SHI-1; assay: as above
Method in brief: as §3

[28] = tested on: HL-60; assay: area under dose-response curve (viability, 1 nM-10 uM) (fraction (0-1)); higher = more sensitive
Method in brief: as §2

CC(=O)N1CCN(c2ccc(OC[C@@H]3CO[C@@](Cn4ccnc4)(c4ccc(Cl)cc4Cl)O3)cc2)CC1 (racemic) [Ketoconazole]
Settings | IC50 (cell viability) [µM]
[1] | > 10
[2] | > 10
[3] | > 10
[4] | > 10
[5] | 8.91
[6] | 8.35
[7] | > 10
[8] | > 10
[9] | > 10
[10] | > 10
[11] | > 10
[12] | > 10
[13] | > 10
[14] | > 10
[15] | > 10

cell viability [%], [16]
Settings | 0.001 µM | 0.01 µM | 0.1 µM | 1 µM | 10 µM
co-treatment: AZD3965 100 nM | 98.3 | 95.6 | 105 | 109 | 96.1
co-treatment: DMSO vehicle | 99.7 | 96.9 | 104 | 104 | 102.6
co-treatment: GSK2194069 100 nM | 100 | 78.8 | 109 | 110 | 95.6
co-treatment: pictilisib 100 nM | 88.8 | 95.03 | 106 | 111 | 102

Settings | area under dose-response curve, co-treatment: AZD3965 100 nM | area under dose-response curve, co-treatment: DMSO vehicle | area under dose-response curve, co-treatment: GSK2194069 100 nM | area under dose-response curve, co-treatment: pictilisib 100 nM | cell viability, 1 nM [%] | cell viability, 10 nM [%] | cell viability, 100 nM [%] | cell viability, 1000 nM [%] | cell viability, 10000 nM [%]
[17] | – | – | – | – | 90.8 | 78.3 | 100 | 92.6 | 78.8
[18] | – | – | – | – | 104 | 105 | 94.1 | 112 | 67.2
[19] | – | – | – | – | 104 | 109 | 97.8 | 112 | 75.5
[20] | – | – | – | – | 98.6 | 95.2 | 97.3 | 91.8 | 95.8
[21] | – | – | – | – | 98.4 | 117 | 101 | 103 | 44.1
[22] | – | – | – | – | 97.5 | 105 | 90.9 | 93.7 | 42.9
[23] | – | – | – | – | 104 | 97.9 | 96.3 | 96.7 | 82.6
[24] | – | – | – | – | 97.8 | 113 | 90.8 | 101 | 69.9
[25] | – | – | – | – | 92.5 | 94.3 | 102 | 98.2 | 54.7
[26] | – | – | – | – | 93.6 | 91.8 | 95.6 | 94 | 90.1
[27] | – | – | – | – | 104 | 113 | 96.3 | 114 | 97.5
[28] | < 0.0301 | < 0.0301 | < 0.0301 | < 0.0301 | – | – | – | – | –
